Data on one molecule can be found in patent US20030134901A1, “Lipoxin compounds and their use in treating cell proliferative disorders” (priority 1993, published 2003).

The subject of this assay is PLD activity in human PMN. Description: PLD activity (PEt formation) in PMN. The class given is cell-based. The conditions noted are these: biphasic concentration dependence. As for the experimental part: PMN, platelet and RBC isolation from peripheral blood. Human PMN were obtained by the modified Böyum method (Böyum, A. (1968) Scan. J. Clin. Lab. Invest. 21:77) from fresh heparinized blood after venipuncture of healthy normal volunteers. Suspensions in PBS were monitored for cell number and viability by their ability to exclude trypan blue both exceeding 98%. Red blood cells were obtained from 10 ml of heparinized blood after three centrifugations in PBS (2,500 rpm, 10 min at 21° C.). Blood drawn in acidic citrate dextrose (9:1, v/v) was used to isolate platelets as previously described (Serhan, C. N. and Sheppard, K.-A. (1990) J. Clin. Invest. 85:772). PLD activity. Human PMN and HL-60 cells (50×10^6 cells/ml) prepared as above were incubated with ^3H-myristic acid or ^3H-palmitic acid (8 μCi/50×10^6 cells) for 40-60 min at 37° C. in PBS. […] Incubations were carried out at 37° C. (10 ×10^6 cells/ml PBS). […] M. et al. (1989) J. Biol. Chem. 264:17069. At indicated times, incubations were stopped by adding 3.5 ml of ice cold CHCl3/MeOH (2/5, v/v) containing 1-^14C-arachidonic acid (5,000 cpm) used here as internal standard to quantitate extraction recoveries. Samples were extracted using a modified Bligh and Dyer extraction as in (Serhan, C. N. and Sheppard, K. -A. (1990) J. Clin. Invest. 85:772). Organic phases, concentrated in 50 μL of CHCl3/MeOH (8/2, v/v), were spotted onto linear […] TLC plates developed with the organic phase of ethyl acetate[…][…] (110/50/20/100, v/v/v/v) for 50 min ([…]. et al.(1989) J. Biol. Chem. 264:17069). […] Regions corresponding to PA, PEt, and internal standards were scraped and quantified by liquid scintillation counting. […] In these experiments, PA was resolved using ethyl acetate[…][…]) as solvent system ([…]. et al. (1989) Anal. […] Impact of IAP and staurosporine on LXA4-induced PLD activity. PLD activity assays, performed as described (vide supra), were preceded by cell exposure to either IAP or staurosporine. […]

Structures are written as SMILES.

For `CCCCC[C@H](O)/C=C/C=C\C=C\C=C\[C@@H](O)[C@@H](O)CCCC(=O)O` [LXA4, (5S, 6R, 15S)-trihydroxy-7E, 9E, 11Z, 13E-eicosatetraenoic acid], the “concentration of second peak of activity, PEt formation” value is recorded as 10^−7 M.
